Test results as given in patent publication US20240238313A1, “DOSING OF CV-10155 IN THE EVENING OR PRIOR TO SLEEP TO TREAT GABAA DISORDERS” (priority 2021, published 2024).
Where “and” joins values, the source holds several entries; their conditions need not be identical. Equal entries are not always repeated. Entries after “also recorded” stand apart in the source; their conditions may differ. Where two headings read alike, the source gives them in different places.

Columns and labels:
Forced swim test = Forced swim test - Depression; design: species or system rodent; settings: in vivo
[1] = cited from earlier work
[2] = humans, single oral dose, range of 5-135 mg
[3] = human, in vivo, 60 mg
[4] = target: α4β3δ GABAA receptors (extra synaptic) (Homo sapiens, UniProt P28472+P48169); settings: compositions containing isomerically pure compound; described in U.S. Pat. No. 10,857,163; cited from earlier work
[5] = 60 mg CV-10155 orally once per day for seven days in humans (MAD): PK and adverse events
[6] = 10 mg in HPMC-AS formulation PO, fed cohort, individual dogs #9-12 and mean (r14)
[7] = 10 mg in HPMC-AS formulation PO, pentagastrin/fasted cohort, individual dogs #1-4 and mean (r14)
[8] = 30 mg in HPMC-AS formulation PO, pentagastrin/fasted cohort, individual dogs #13-16 and mean (r14)
[9] = 60 mg, evening, fed state, N = 9
[10] = 60 mg, morning, fasted state, N = 9

Chain of α4β3δ GABAA receptors (extra synaptic) (P48169 36-554): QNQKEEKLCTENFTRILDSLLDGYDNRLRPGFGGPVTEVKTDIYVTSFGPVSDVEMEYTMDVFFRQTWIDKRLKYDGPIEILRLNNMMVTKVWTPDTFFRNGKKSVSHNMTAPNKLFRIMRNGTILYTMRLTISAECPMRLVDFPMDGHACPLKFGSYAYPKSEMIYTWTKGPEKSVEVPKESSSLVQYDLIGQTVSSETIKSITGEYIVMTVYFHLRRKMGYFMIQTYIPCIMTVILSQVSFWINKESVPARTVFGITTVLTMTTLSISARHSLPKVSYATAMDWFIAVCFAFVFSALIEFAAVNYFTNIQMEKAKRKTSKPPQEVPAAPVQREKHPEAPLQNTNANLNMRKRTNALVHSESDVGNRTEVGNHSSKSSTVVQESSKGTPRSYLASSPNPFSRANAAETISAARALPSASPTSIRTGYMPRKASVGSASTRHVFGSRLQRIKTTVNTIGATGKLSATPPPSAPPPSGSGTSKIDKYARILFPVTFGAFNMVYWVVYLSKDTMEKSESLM
Chain of α4β3δ GABAA receptors (extra synaptic) (P28472 26-473): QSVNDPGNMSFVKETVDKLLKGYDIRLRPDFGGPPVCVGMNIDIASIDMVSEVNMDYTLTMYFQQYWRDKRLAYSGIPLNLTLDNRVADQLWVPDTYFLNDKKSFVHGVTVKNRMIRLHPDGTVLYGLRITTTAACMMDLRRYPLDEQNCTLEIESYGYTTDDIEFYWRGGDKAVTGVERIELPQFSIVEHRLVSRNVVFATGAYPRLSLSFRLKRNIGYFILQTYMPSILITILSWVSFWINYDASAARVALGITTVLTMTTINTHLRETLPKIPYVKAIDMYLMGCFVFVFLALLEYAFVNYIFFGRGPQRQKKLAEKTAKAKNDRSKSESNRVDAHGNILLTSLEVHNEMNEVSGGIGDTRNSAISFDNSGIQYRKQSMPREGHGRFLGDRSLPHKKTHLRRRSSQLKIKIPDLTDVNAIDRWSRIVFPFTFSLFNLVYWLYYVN
Chain of α4β3δ GABAA receptors (extra synaptic) (O14764 17-452 partner limits assumed): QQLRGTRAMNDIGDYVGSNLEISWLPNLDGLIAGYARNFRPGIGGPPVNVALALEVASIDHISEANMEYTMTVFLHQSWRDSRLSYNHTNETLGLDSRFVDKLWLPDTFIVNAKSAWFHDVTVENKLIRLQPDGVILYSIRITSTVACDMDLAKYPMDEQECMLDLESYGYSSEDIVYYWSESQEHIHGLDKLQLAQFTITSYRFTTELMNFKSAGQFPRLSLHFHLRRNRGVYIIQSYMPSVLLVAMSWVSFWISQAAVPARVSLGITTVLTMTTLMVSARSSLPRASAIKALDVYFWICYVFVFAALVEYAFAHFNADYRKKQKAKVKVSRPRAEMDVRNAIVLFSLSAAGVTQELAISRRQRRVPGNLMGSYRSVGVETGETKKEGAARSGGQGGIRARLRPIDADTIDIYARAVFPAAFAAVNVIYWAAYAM

C[C@@]1(O)CC[C@H]2[C@H](CC[C@@H]3[C@@H]2CC[C@]2(C)[C@@H](C(=O)Cn4cc(C#N)cn4)CC[C@@H]32)C1 [Sage-217]
Doses tested in Forced swim test - Depression (* significantly efficacious dose) (Forced swim test): 1 - 3* mg/kg | Any AE, (%) ([1]; 20 mg (n-188)): 50.0% | Diarrhea, (%) ([1]; 20 mg (n-188)): 5.9% | Dizziness, (%) ([1]; 20 mg (n-188)): 7.4% | Fatigue, (%) ([1]; 20 mg (n-188)): 1.6% | Headache, (%) ([1]; 20 mg (n-188)): 11.2% | Nausea, (%) ([1]; 20 mg (n-188)): 5.3% | Sedation, (%) ([1]; 20 mg (n-188)): 5.9% | Somnolence, (%) ([1]; 20 mg (n-188)): 5.9% | Any AE, (%) ([1]; 30 mg (n-192)): 54.2% | Diarrhea, (%) ([1]; 30 mg (n-192)): 6.3% | Dizziness, (%) ([1]; 30 mg (n-192)): 5.7% | Fatigue, (%) ([1]; 30 mg (n-192)): 6.8% | Headache, (%) ([1]; 30 mg (n-192)): 6.3% | Nausea, (%) ([1]; 30 mg (n-192)): 3.6% | Sedation, (%) ([1]; 30 mg (n-192)): 4.7% | Somnolence, (%) ([1]; 30 mg (n-192)): 6.8%

C[C@@]1(O)CC[C@@]2(C)[C@@H](CC[C@@H]3[C@@H]2CC[C@]2(C)[C@@H](C(=O)Cn4cc(C#N)cn4)CC[C@@H]32)C1 [CV-10155, 1-[2-[(3R,5S,8R,9S,10S,13S,14S,17S)-3-hydroxy-3,10,13-trimethyl-1,2,4,5,6,7,8,9,11,12,14,15,16,17-tetradecahydrocyclopenta[a]phenanthren-17-yl]-2-oxoethyl]pyrazole-4-carbonitrile]
AUCInf [6]: 2440 ng·h/mL | AUCInf/D [6]: 5602 kg·ng·h/mL/mg and 2929 kg·ng·h/mL/mg and 2273 kg·ng·h/mL/mg and 4084 kg·ng·h/mL/mg | T1/2 [6]: 12.5 h | Tmax [6]: 1.13 h | AUCInf [7]: 2612 ng·h/mL | AUCInf/D [7]: 2762 kg·ng·h/mL/mg and 2441 kg·ng·h/mL/mg and 3314 kg·ng·h/mL/mg and 2821 kg·ng·h/mL/mg | Tmax [7]: 1.50 h | AUCInf/D [8]: 4995 kg·ng·h/mL/mg and 3157 kg·ng·h/mL/mg and 1572 kg·ng·h/mL/mg and 2982 kg·ng·h/mL/mg | T1/2 [8]: 12.3 h | dose-limiting adverse events [2]: No dose-limiting adverse events | Racc Cmax [3]: 1.78 | preferential potentiation of α4β3δ as compared to α1β2γ2 GABAA receptors [4]: preferentially potentiate α4β3δ GABAA receptors | AE Back pain, # [5, 9]: 1 | AE Bloating, # [5, 9]: 1 | AE Dizziness, # [5, 9]: 1 | AE Headache, # [5, 9]: 2 | AE Sleepiness, # ([5]; 60 mg, evening, fed state, N = 9 (two separate table lines)): 1 | AE Dizziness, # [5, 10]: 1 | AE Feeling sleepy, # [5, 10]: 1 | AE Feeling tired, # [5, 10]: 2 | AE Headache, # [5, 10]: 2 | AE Sleepiness, # [5, 10]: 9 | AE Tiredness, # [5, 10]: 3 | tolerability profile compared to PRAX-114 and Sage-217 ([5]; humans, 60 mg dosed in the evening): favorable tolerability profile compared to PRAX-114 | exposure levels compared with 30 mg doses of Sage-217 ([5]; humans, 60 mg doses): higher exposure levels | AE ([5]; humans, CV-10155 in the evening in a fed state, individual subjects): Headache; also recorded: Somnolence; also recorded: Back pain; also recorded: Abdominal distension; also recorded: Dizziness | Severity ([5]; humans, evening, fed state, per AE of the same table row): Moderate and Mild | adverse effects interfering with sleeping ([5]; humans, oral, evening, fed subjects): does not produce adverse effects that interfere with sleeping
